In brackets after ≈: the same amount, converted by molar mass. Activity calls are given as the source filed them. The rule behind the calls is not given here.
How the values were obtained:
[1] = system: Candida albicans; assay: Antifungal activity against Candida albicans ATCC 10231 after 24 hrs by micro broth dilution assay; format: functional; conditions: ATCC 10231, 24 h
[2] = system: Micrococcus luteus; assay: Antibacterial activity against Micrococcus luteus ATCC 4698 after 24 hrs by micro broth dilution assay; format: functional; conditions: ATCC 4698, 24 h
[3] = system: Calf thymus DNA; assay: Competitive binding affinity to calf thymus DNA using neutral red up to 2.0 x 10^-5 mol/L by UV-visible absorption spectroscopy; format: nucleic-acid assay; conditions: Bos taurus
[4] = system: Candida; assay: Antifungal activity against Candida mycoderma ATCC 9888 after 24 hrs by micro broth dilution assay; format: functional; conditions: ATCC 9888, 24 h
[5] = system: Bacillus sp.; assay: Antibacterial activity against Bacillus proteus ATCC 13315 after 24 hrs by micro broth dilution assay; format: functional; conditions: Bacillus sp. (in: firmicutes), ATCC 13315, 24 h
[6] = system: Bacillus spizizenii; assay: Antibacterial activity against Bacillus subtilis ATCC 6633 after 24 hrs by micro broth dilution assay; format: functional; conditions: ATCC 6633, 24 h
[7] = system: Calf thymus DNA; assay: Binding affinity to calf thymus DNA by UV-visible absorption spectroscopy; format: nucleic-acid assay; conditions: Bos taurus
[8] = biological target: Albumin (Homo sapiens, UniProt P02768); assay: Binding affinity to human serum albumin assessed as fluorescence quenching at 10^-5 mol/L by fluorescence spectroscopy analysis; format: ADME; conditions: isolated protein, 10 µM
[9] = system: Pseudomonas aeruginosa; assay: Antibacterial activity against Pseudomonas aeruginosa ATCC 27853 a after 24 hrs by micro broth dilution assay; format: functional; conditions: ATCC 27853, 24 h
[10] = system: Aspergillus flavus; assay: Antifungal activity against Aspergillus flavus ATCC 204304 after 24 hrs by micro broth dilution assay; format: functional; conditions: ATCC 204304, 24 h
[11] = Antibacterial activity against Eberthella typhosa ATCC 14028 after 24 hrs by micro broth dilution assay; format: functional; conditions: ATCC 14028, 24 h
[12] = system: Saccharomyces cerevisiae; assay: Antifungal activity against Beer yeast ATCC 9763 after 24 hrs by micro broth dilution assay; format: functional; conditions: ATCC 9763, 24 h
[13] = system: Staphylococcus aureus; assay: Antibacterial activity against Staphylococcus aureus ATCC 25923 after 24 hrs by micro broth dilution assay; format: functional; conditions: ATCC 25923, 24 h
[14] = system: Staphylococcus aureus; assay: Antibacterial activity against methicillin-resistant Staphylococcus aureus N315 after 24 hrs by micro broth dilution assay; format: functional; conditions: N315, 24 h
[15] = system: Cyberlindnera jadinii; assay: Antifungal activity against Candida utilis ATCC 9950 after 24 hrs by micro broth dilution assay; format: functional; conditions: Williopsis jadinii, ATCC 9950, 24 h
[16] = system: Escherichia coli; assay: Antibacterial activity against Escherichia coli DH52 after 24 hrs by micro broth dilution assay; format: functional; conditions: DH52, 24 h
[17] = system: Bacillus spizizenii; assay: Ratio of chloromycin MIC to compound MIC for Bacillus subtilis ATCC 6633; format: functional
[18] = system: Aspergillus flavus; assay: Ratio of fluconazole MIC to compound MIC for Aspergillus flavus ATCC 204304; format: functional

Albumin, sequence (P02768 whole entry): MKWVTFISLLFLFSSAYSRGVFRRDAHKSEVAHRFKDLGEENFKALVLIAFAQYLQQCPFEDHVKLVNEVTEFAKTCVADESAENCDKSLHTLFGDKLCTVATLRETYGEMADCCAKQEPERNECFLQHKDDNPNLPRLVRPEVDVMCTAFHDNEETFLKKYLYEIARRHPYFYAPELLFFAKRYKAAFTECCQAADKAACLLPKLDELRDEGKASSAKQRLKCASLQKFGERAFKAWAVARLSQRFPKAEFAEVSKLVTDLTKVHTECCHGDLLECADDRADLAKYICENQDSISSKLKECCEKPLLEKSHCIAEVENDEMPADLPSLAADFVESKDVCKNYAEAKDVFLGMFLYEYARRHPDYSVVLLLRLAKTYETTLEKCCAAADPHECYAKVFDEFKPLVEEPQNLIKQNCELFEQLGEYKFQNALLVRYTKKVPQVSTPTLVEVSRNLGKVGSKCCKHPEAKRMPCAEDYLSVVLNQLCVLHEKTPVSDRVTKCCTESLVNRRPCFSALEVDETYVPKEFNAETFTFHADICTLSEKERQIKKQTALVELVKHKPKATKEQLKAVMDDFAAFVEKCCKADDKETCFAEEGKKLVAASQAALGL

| SMILES | MIC [1] [µM] | MIC [2] [µM] | Activity [3] | MIC [4] [µM] | MIC [5] [µM] | MIC [6] [µM] | K [7] [×10⁴ L/mol] | Kq [8] [×10¹² L/mol/s] | MIC [9] [µM] | MIC [10] [µM] | MIC [11] [µM] | MIC [12] [µM] | MIC [13] [µM] | MIC [14] [µM] | MIC [15] [µM] | MIC [16] [µM] | Ratio [17] | Ratio [18] |
| --- | --- | --- | --- | --- | --- | --- | --- | --- | --- | --- | --- | --- | --- | --- | --- | --- | --- | --- |
| Cc1ncc([N+](=O)[O-])n1CCn1cnc2cc(F)ccc2c1=O | 30 (≈ 9.52 µg/mL) | 50 (≈ 15.9 µg/mL) | Active | 30 (≈ 9.52 µg/mL) | 50 (≈ 15.9 µg/mL) | 30 (≈ 9.52 µg/mL) | 1.41 | 0.1 | > 1610 | 30 (≈ 9.52 µg/mL) | 30 (≈ 9.52 µg/mL) | 30 (≈ 9.52 µg/mL) | 30 (≈ 9.52 µg/mL) | 30 (≈ 9.52 µg/mL) | 30 (≈ 9.52 µg/mL) | 30 (≈ 9.52 µg/mL) |  |  |
| O=c1c2ccc(F)cc2ncn1CCCCCCn1cnc([N+](=O)[O-])c1 | 40 (≈ 14.4 µg/mL) | 40 (≈ 14.4 µg/mL) |  | 40 (≈ 14.4 µg/mL) | 90 (≈ 32.3 µg/mL) | 20 (≈ 7.19 µg/mL) |  |  | 360 (≈ 129 µg/mL) | 180 (≈ 64.7 µg/mL) | 360 (≈ 129 µg/mL) | 90 (≈ 32.3 µg/mL) | 360 (≈ 129 µg/mL) | 180 (≈ 64.7 µg/mL) | 360 (≈ 129 µg/mL) | 180 (≈ 64.7 µg/mL) | 5 |  |
| Cc1ncc([N+](=O)[O-])n1CCCCCCn1cnc2cc(F)ccc2c1=O | 20 (≈ 7.47 µg/mL) | 40 (≈ 14.9 µg/mL) |  | 20 (≈ 7.47 µg/mL) | 40 (≈ 14.9 µg/mL) | 20 (≈ 7.47 µg/mL) |  |  | > 1370 | 10 (≈ 3.73 µg/mL) | 20 (≈ 7.47 µg/mL) | 40 (≈ 14.9 µg/mL) | 40 (≈ 14.9 µg/mL) | 40 (≈ 14.9 µg/mL) | 20 (≈ 7.47 µg/mL) | 40 (≈ 14.9 µg/mL) |  | 84 |
| O=c1c2ccc(F)cc2ncn1CCCCBr | 860 (≈ 257 µg/mL) | 860 (≈ 257 µg/mL) |  | > 1710 | 860 (≈ 257 µg/mL) | 1710 (≈ 512 µg/mL) |  |  | > 1710 | 1710 (≈ 512 µg/mL) | > 1710 | 860 (≈ 257 µg/mL) | > 1710 | 430 (≈ 129 µg/mL) | 430 (≈ 129 µg/mL) | 1710 (≈ 512 µg/mL) |  |  |
| O=c1c2ccc(F)cc2ncn1CCCCCn1cnc([N+](=O)[O-])c1 | 90 (≈ 31.1 µg/mL) | 50 (≈ 17.3 µg/mL) |  | 190 (≈ 65.6 µg/mL) | 370 (≈ 128 µg/mL) | 20 (≈ 6.91 µg/mL) |  |  | 370 (≈ 128 µg/mL) | 740 (≈ 256 µg/mL) | 370 (≈ 128 µg/mL) | 90 (≈ 31.1 µg/mL) | 190 (≈ 65.6 µg/mL) | 190 (≈ 65.6 µg/mL) | 370 (≈ 128 µg/mL) | 370 (≈ 128 µg/mL) | 5 |  |
| O=c1c2ccc(F)cc2ncn1CCCCCCCCCCn1cnc([N+](=O)[O-])c1 | 40 (≈ 16.6 µg/mL) | 40 (≈ 16.6 µg/mL) |  | 40 (≈ 16.6 µg/mL) | 80 (≈ 33.2 µg/mL) | 20 (≈ 8.31 µg/mL) |  |  | 80 (≈ 33.2 µg/mL) | 150 (≈ 62.3 µg/mL) | 310 (≈ 129 µg/mL) | 80 (≈ 33.2 µg/mL) | 310 (≈ 129 µg/mL) | 150 (≈ 62.3 µg/mL) | 150 (≈ 62.3 µg/mL) | 150 (≈ 62.3 µg/mL) | 5 |  |
| Cc1ncc([N+](=O)[O-])n1CCn1cnc2cc(Cl)ccc2c1=O | 50 (≈ 16.7 µg/mL) | 100 (≈ 33.4 µg/mL) |  | 50 (≈ 16.7 µg/mL) | 50 (≈ 16.7 µg/mL) | 50 (≈ 16.7 µg/mL) |  |  | > 1530 | 20 (≈ 6.67 µg/mL) | 20 (≈ 6.67 µg/mL) | 50 (≈ 16.7 µg/mL) | 100 (≈ 33.4 µg/mL) | 50 (≈ 16.7 µg/mL) | 50 (≈ 16.7 µg/mL) | 100 (≈ 33.4 µg/mL) |  |  |
| O=c1c2ccc(Cl)cc2ncn1CCCCCCCCCCn1cnc([N+](=O)[O-])c1 | 40 (≈ 17.3 µg/mL) | 40 (≈ 17.3 µg/mL) |  | 40 (≈ 17.3 µg/mL) | 70 (≈ 30.2 µg/mL) | 40 (≈ 17.3 µg/mL) |  |  | 70 (≈ 30.2 µg/mL) | 150 (≈ 64.8 µg/mL) | 300 (≈ 130 µg/mL) | 70 (≈ 30.2 µg/mL) | 300 (≈ 130 µg/mL) | 150 (≈ 64.8 µg/mL) | 150 (≈ 64.8 µg/mL) | 150 (≈ 64.8 µg/mL) |  |  |
| O=c1c2ccc(F)cc2ncn1CCCCCCCCCCBr | 670 (≈ 257 µg/mL) | 670 (≈ 257 µg/mL) |  | > 1340 | 330 (≈ 126 µg/mL) | 1340 (≈ 514 µg/mL) |  |  | > 1340 | 1340 (≈ 514 µg/mL) | > 1340 | 670 (≈ 257 µg/mL) | > 1340 | 330 (≈ 126 µg/mL) | 330 (≈ 126 µg/mL) | 1340 (≈ 514 µg/mL) |  |  |
| O=c1c2ccc(F)cc2ncn1CCCCn1cnc([N+](=O)[O-])c1 | 100 (≈ 33.1 µg/mL) | 50 (≈ 16.6 µg/mL) |  | 770 (≈ 255 µg/mL) | 390 (≈ 129 µg/mL) | 50 (≈ 16.6 µg/mL) |  |  | 770 (≈ 255 µg/mL) | 770 (≈ 255 µg/mL) | 390 (≈ 129 µg/mL) | 100 (≈ 33.1 µg/mL) | 390 (≈ 129 µg/mL) | 190 (≈ 62.9 µg/mL) | 390 (≈ 129 µg/mL) | 770 (≈ 255 µg/mL) |  |  |
| O=c1c2ccc(Cl)cc2ncn1CCn1cnc([N+](=O)[O-])c1 | 100 (≈ 32 µg/mL) | 50 (≈ 16 µg/mL) |  | 800 (≈ 256 µg/mL) | 400 (≈ 128 µg/mL) | 50 (≈ 16 µg/mL) |  |  | > 1600 | > 1600 | 400 (≈ 128 µg/mL) | 200 (≈ 63.9 µg/mL) | 800 (≈ 256 µg/mL) | 200 (≈ 63.9 µg/mL) | 400 (≈ 128 µg/mL) | 800 (≈ 256 µg/mL) |  |  |
| O=c1c2ccc(Cl)cc2ncn1CCCCCn1cnc([N+](=O)[O-])c1 | 90 (≈ 32.6 µg/mL) | 40 (≈ 14.5 µg/mL) |  | 180 (≈ 65.1 µg/mL) | 350 (≈ 127 µg/mL) | 40 (≈ 14.5 µg/mL) |  |  | 350 (≈ 127 µg/mL) | 710 (≈ 257 µg/mL) | 350 (≈ 127 µg/mL) | 90 (≈ 32.6 µg/mL) | 180 (≈ 65.1 µg/mL) | 180 (≈ 65.1 µg/mL) | 350 (≈ 127 µg/mL) | 350 (≈ 127 µg/mL) |  |  |
